Source: patent US8178530B2, “Imidazolopyrazine compounds useful for the treatment of degenerative and inflammatory diseases” (Janssen Pharmaceutica NV, priority 2006, dated 2012)

Tests used:
MAPKAPK5 = biological target: T1, MAPKAPK5 (Homo sapiens, UniProt Q8IW41); assay: MAPKAP-K5 assay (FlashPlate, 33P-ATP); assay type: biochemical; details: 0.6 μM ATP, 30 minutes at room temperature
T1 construct: 1 mU MAPKAP-K5
T1 sequence (Q8IW41 1-473): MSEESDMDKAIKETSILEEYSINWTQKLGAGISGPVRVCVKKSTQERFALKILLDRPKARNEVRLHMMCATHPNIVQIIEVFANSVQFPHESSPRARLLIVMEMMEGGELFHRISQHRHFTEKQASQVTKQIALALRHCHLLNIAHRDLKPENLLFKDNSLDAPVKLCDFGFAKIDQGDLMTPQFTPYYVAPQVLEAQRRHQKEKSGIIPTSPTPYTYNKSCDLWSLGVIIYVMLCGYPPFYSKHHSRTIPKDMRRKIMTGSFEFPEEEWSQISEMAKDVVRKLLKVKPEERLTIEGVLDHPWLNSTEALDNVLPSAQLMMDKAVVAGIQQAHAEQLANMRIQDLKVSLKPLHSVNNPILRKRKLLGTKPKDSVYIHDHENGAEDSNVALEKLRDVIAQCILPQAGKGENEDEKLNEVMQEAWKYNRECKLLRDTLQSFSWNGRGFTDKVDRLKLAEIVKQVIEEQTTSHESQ
Description: 3 μM MAPKAP-K5 peptide substrate

MMP1 expression by SFs = assay: 'MMP assay': MMP1 expression by 'complex trigger' activated synovial fibroblasts (MMP1 ELISA); assay type: cell-based, human; details: Homo sapiens, Fibroblast, RASFs, 48 hrs
Description: A 384-well format ELISA for measurement of MMP1 is developed. Various primary antibodies are tested, as well as various ELISA protocols. The following protocol is developed and validated to measure MMP1 levels in SF supernatant in 384 well plates: white Lumitrac 600 384 well plates (Greiner) are coated with 2 μg/mL anti-MMP1 antibody MAB1346 (Chemicon). The antibody is diluted in buffer 40 (1.21 g Tris base (Sigma), 0.58 g NaCl (Calbiochem) and 5 ml 10% NaN3 (Sigma) in 1 L milliQ water and adjusted to pH 8.5). After overnight incubation at 4° C., plates are washed with PBS (80 g NaCl, 2 g KCl (Sigma), 11.5 g Na2HPO4.7H2O and 2 g KH2PO4 in 10 L milliQ; pH 7.4) and blocked with 100 μL/well Casein buffer (2% Casein (VWR International) in PBS). Next day, casein buffer is removed from ELISA plates and replaced by 50 μL/well EC buffer (4 g casein, 2.13 g Na2HPO4 (Sigma), 2 g bovine albumin (Sigma), 0.69 g NaH2PO4.H2O (Sigma), 0.5 g CHAPS (Roche), 23.3 g NaCl, 4 mL 0.5 M EDTA pH 8 (Invitrogen), 5 mL 10% NaN3 in 1 L milliQ and adjusted to pH 7.0). 0.25 mM DTT (Sigma) is added to the thawed samples plates. After removal of the EC buffer, 20 μL of sample is transferred to the ELISA plates. After overnight incubation at 4° C. plates are washed twice with PBS and once with PBST (PBS with 0.05% Tween-20 (Sigma)) and incubated with 35 μL/well biotinylated anti-MMP1 antibody solution (R&D). This secondary antibody is diluted in buffer C (0.82 g NaH2PO4.H2O, 4.82 g Na2HPO4, 46.6 g NaCl, 20 g bovine albumin and 4 mL 0.5M EDTA pH 8 in 2 L milliQ and adjusted to pH 7.0) at a concentration of 5 μg/mL. After 2 h of incubation at RT, plates are washed as described above and incubated with 50 μL/well streptavidin-HRP conjugate (Biosource). Streptavidin-HRP conjugate is diluted in buffer C at a concentration of 0.25 μg/mL. After 45 min, plates are washed as described above and incubated for 5 min with 50 μL/well BM Chem ELISA Substrate (Roche). Readout is performed on the Luminoscan Ascent Luminometer (Labsystems) with an integration time of 200 msec or with an Envision reader (Perkin Elmer).
The increase of MMP1 expression by SFs upon treatment with cytokines relevant in the field of RA (TNF-α, IL1β and OSM) or a combination thereof is shown in FIG. 2 as white bars. For this experiment, SFs are seeded in 96 well plates, 3,000 cells/well. 24 h later, the medium is changed to M199 medium supplemented with 1% FBS. One day after the medium change, cytokines or combinations thereof are added to the cultures, each cytokine being added to a final concentration of 25 ng/mL. 72 h after cytokine addition, the supernatant is collected and processed in the MMP1 ELISA as described in the protocol given above. In parallel with this experiment, SFs are triggered, using the same protocol, with the supernatant of THP1 cells (2-fold diluted in M199+1% FBS) treated with the same cytokines or combinations of cytokines for 48 h in M199 medium+1% FBS. The induction of the MMP1 expression by SFs triggered with the supernatants of TNF-α-treated THP1 cells is stronger (>4.5 fold induction) as compared to the SFs triggered with recombinant TNF-α alone (3-fold induction) and almost equals the 5-fold induction obtained by a mixture of 3 purified cytokines (TNF-α, IL1βb, OSM). […] As the role of TNF-α in the RA pathogenesis is validated (TNF-α-blockers such as Infliximab and Etanercept show some efficacy in the treatment of RA patients) and the THP-1 cells are representative for monocytes/macrophages present in the joint of RA patients, the TNF-α-based trigger mixture prepared by contacting THP-1 cells with TNF-α will contain factors present in the joints of RA patients and subsequently is relevant to RA. This TNF-α-based complex trigger, further referred to as the ‘complex trigger’, will further be used as basis for the ‘MMP assay’.
Dexamethasone is shown to dose-dependently reduce amounts of MMP1 produced by complex trigger activated SFs. […]

CS(=O)(=O)Nc1ccc(Nc2ncc(-c3cn[nH]c3)n3ccnc23)cc1 [Compound 30]
IC50 (MAPKAPK5): 501 to 1000 nM | EC50 (MMP1 expression by SFs): > 1000 nM

NC(=O)c1c(F)cc(-c2cnc(Nc3ccc(OCCN4CCOCC4)cc3)c3nccn23)cc1F [Compound 216]
IC50 (MAPKAPK5): 501 to 1000 nM | EC50 (MMP1 expression by SFs): > 1000 nM

NC(=O)c1ccc(-c2cnc(Nc3ccc(C(=O)NCc4cccnc4)cc3)c3nccn23)cc1 [Compound 104]
IC50 (MAPKAPK5): > 1000 nM | EC50 (MMP1 expression by SFs): > 1000 nM

CCN(CC)CCNC(=O)c1ccc(Nc2ncc(-c3nc[nH]n3)n3ccnc23)cc1 [Compound 105]
IC50 (MAPKAPK5): > 1000 nM | EC50 (MMP1 expression by SFs): > 1000 nM

c1cncc(Nc2ncc(-c3cn[nH]c3)n3ccnc23)c1 [Compound 42]
IC50 (MAPKAPK5): > 1000 nM | EC50 (MMP1 expression by SFs): > 1000 nM

CC(=O)Nc1ccc(Nc2ncc(-c3cn[nH]c3)n3ccnc23)cc1 [Compound 31]
IC50 (MAPKAPK5): 501 to 1000 nM | EC50 (MMP1 expression by SFs): > 1000 nM

c1cn2c(-c3cn[nH]n3)cnc(Nc3ccc(N4CCOCC4)cc3)c2n1 [Compound 67]
IC50 (MAPKAPK5): > 1000 nM | EC50 (MMP1 expression by SFs): > 1000 nM

CCN(CC)CCNC(=O)c1ccc(Nc2ncc(-c3ccoc3)n3ccnc23)cc1 [Compound 74]
IC50 (MAPKAPK5): > 1000 nM | EC50 (MMP1 expression by SFs): > 1000 nM

CCc1cnc2c(Nc3ccc(N4CCOCC4)cc3)ncc(-c3ccc(C(N)=O)cc3)n12 [Compound 162, 4-[3-Ethyl-8-(4-morpholin-4-ylphenylamino)-imidazo[1,2-a]pyrazin-5-yl]benzamide]
IC50 (MAPKAPK5): > 1000 nM | EC50 (MMP1 expression by SFs): 501 to 1000 nM

NC(=O)c1ccc(-c2cnc(Nc3ccc(-n4cncn4)cc3)c3nccn23)cc1 [Compound 134]
IC50 (MAPKAPK5): > 1000 nM | EC50 (MMP1 expression by SFs): 101 to 500 nM

CCN(CC)CCNC(=O)c1ccc(Nc2ncc(-c3cccs3)n3ccnc23)cc1 [Compound 78]
IC50 (MAPKAPK5): > 1000 nM | EC50 (MMP1 expression by SFs): > 1000 nM

CCN(CC)CCNC(=O)c1ccc(Nc2ncc(-c3cn[nH]n3)n3ccnc23)cc1 [Compound 84]
IC50 (MAPKAPK5): 501 to 1000 nM | EC50 (MMP1 expression by SFs): > 1000 nM

NC(=O)c1ccc(-c2cnc(Nc3ccc4[nH]ccc4c3)c3nccn23)cc1 [Compound 28]
IC50 (MAPKAPK5): > 1000 nM | EC50 (MMP1 expression by SFs): 501 to 1000 nM

CCN(CCO)c1ccc(Nc2ncc(-c3cccc(N)c3)n3ccnc23)cc1 [Compound 7]
IC50 (MAPKAPK5): > 1000 nM | EC50 (MMP1 expression by SFs): > 1000 nM

N#Cc1ccc(Nc2ncc(-c3cn[nH]c3)n3ccnc23)cc1Cl [Compound 34]
IC50 (MAPKAPK5): > 1000 nM | EC50 (MMP1 expression by SFs): 501 to 1000 nM

COc1cc(Nc2ncc(-c3csc(C(N)=O)c3)n3ccnc23)ccc1C(=O)NCc1ccc(C)nc1 [Compound 190, 4-(8-{3-Methoxy-4-[(6-methylpyridin-3-ylmethyl)carbamoyl]phenylamino}imidazo[1,2-a]pyrazin-5-yl)thiophene-2-carboxylic acid amide]
IC50 (MAPKAPK5): > 1000 nM | EC50 (MMP1 expression by SFs): 101 to 500 nM

CC(C)N1CCN(c2ccc(Nc3ncc(-c4cn[nH]c4)n4ccnc34)cn2)CC1 [Compound 201, [6-(4-Isopropylpiperazin-1-yl)pyridin-3-yl]-[5-(1H-pyrazol-4-yl)-imidazo[1,2-a]pyrazin-8-yl]amine]
IC50 (MAPKAPK5): 501 to 1000 nM | EC50 (MMP1 expression by SFs): > 1000 nM

NC(=O)c1ccc(-c2cnc(Nc3ccc(OCc4cccnc4)cc3)c3nccn23)cc1F [Compound 147]
IC50 (MAPKAPK5): > 1000 nM | EC50 (MMP1 expression by SFs): 101 to 500 nM

CCN(CCO)c1ccc(Nc2ncc(-c3cn[nH]c3)n3ccnc23)c(C)c1 [Compound 12]
IC50 (MAPKAPK5): > 1000 nM | EC50 (MMP1 expression by SFs): > 1000 nM

Cc1cc(-c2cnc(Nc3ccc(N4CCOCC4)cc3)c3nccn23)ccc1C(N)=O [Compound 185]
IC50 (MAPKAPK5): > 1000 nM | EC50 (MMP1 expression by SFs): 501 to 1000 nM

NC(=O)c1ccc(-c2cnc(Nc3ccc(N)cc3)c3nccn23)cc1 [Compound 18]
IC50 (MAPKAPK5): > 1000 nM | EC50 (MMP1 expression by SFs): > 1000 nM

CCN(CC)CCNC(=O)c1ccc(Nc2ncc(-c3cn[nH]c3)n3cc(C)nc23)cc1 [Compound 59]
IC50 (MAPKAPK5): > 1000 nM | EC50 (MMP1 expression by SFs): > 1000 nM

CCN(CCO)c1ccc(Nc2ncc(-c3ccc(N)cc3)n3ccnc23)cc1 [Compound 6]
IC50 (MAPKAPK5): > 1000 nM | EC50 (MMP1 expression by SFs): > 1000 nM

O=C(O)c1ccc(-c2cnc(Nc3ccc(N4CCOCC4)cc3)c3nccn23)cc1F [Compound 39]
IC50 (MAPKAPK5): > 1000 nM | EC50 (MMP1 expression by SFs): > 1000 nM

CC(C)N1CCN(c2ncc(Nc3ncc(-c4ccc5c(c4)CNC5=O)n4ccnc34)cn2)CC1 [Compound 219]
IC50 (MAPKAPK5): 101 to 500 nM | EC50 (MMP1 expression by SFs): 501 to 1000 nM

O=C(O)c1cnc(Nc2ccc(N3CCOCC3)cc2)c2nccn12 [Compound 63]
IC50 (MAPKAPK5): > 1000 nM | EC50 (MMP1 expression by SFs): > 1000 nM

Cc1cnc2c(Nc3ccc(N4CCOCC4)cc3)ncc(-c3cn[nH]c3)n12 [Compound 131, [3-Methyl-5-(1H-pyrazol-4-yl)imidazo[1,2-a]pyrazin-8-yl]-(4-morpholin-4-yl-phenyl)amine]
IC50 (MAPKAPK5): > 1000 nM | EC50 (MMP1 expression by SFs): > 1000 nM

CCN(CC)CCNC(=O)c1ccc(Nc2ncc(-c3cncc4ccccc34)n3ccnc23)cc1 [Compound 77]
IC50 (MAPKAPK5): > 1000 nM | EC50 (MMP1 expression by SFs): > 1000 nM

CC(C)N1CCN(c2ccc(Nc3ncc(-c4coc(C(N)=O)c4)n4ccnc34)cn2)CC1 [Compound 209, 4-{8-[6-(4-Isopropyl-piperazin-1-yl)-pyridin-3-ylamino]-imidazo[1,2-a]pyrazin-5-yl}-furan-2-carboxylic acid amide]
IC50 (MAPKAPK5): 101 to 500 nM | EC50 (MMP1 expression by SFs): > 1000 nM

Cc1nc(-c2cnc(Nc3ccc(N4CCOCC4)cc3)c3nccn23)n[nH]1 [Compound 100]
IC50 (MAPKAPK5): > 1000 nM | EC50 (MMP1 expression by SFs): > 1000 nM

CC(C)N1CCC(c2ccc(Nc3ncc(-c4cn[nH]c4)n4ccnc34)cc2)CC1 [Compound 202, [4-(1-Isopropylpiperidin-4-yl)phenyl]-[5-(1H-pyrazol-4-yl)imidazo[1,2-a]pyrazin-8-yl]amine]
IC50 (MAPKAPK5): 101 to 500 nM | EC50 (MMP1 expression by SFs): > 1000 nM
